Experimental data published in US20100168097A1, “Non-Nucleoside Reverse Transcriptase Inhibitors” (priority 2005, published 2010).
Read-outs that look alike come from different tables or passages of the source.

Columns and labels:
HIV-1 RT enzyme = HIV-1 RT enzyme (Human immunodeficiency virus type 1 group M subtype B, UniProt P04585); assay: Assay for inhibition of HIV reverse transcriptase (RNA-dependent DNA polymerase, SPA); assay type: biochemical; conditions: HIV-1 RT enzyme 1 nM, 1 hour at 37° C.
Method: (§1) 100 μL reaction mixtures were initiated with a combination of primer-template substrate (10 nM final concentration) and dNTPs (0.6 μM dNTPs, 0.75 μM [^3H]-dGTP). The heterodimeric nucleic acid substrate was generated by annealing the DNA primer pD500 (described in Shaw-Reid et al., J. Biol. Chem., 278: 2777-2780; obtained from Integrated DNA Technologies) to t500, a 500 nucleotide RNA template created by in vitro transcription (see Shaw-Reid et al., J. Biol. Chem., 278: 2777-2780). After 1 hour incubation at 37° C., reactions were quenched by 10 μL streptavidin scintillation proximity assay beads (10 mg/mL, from Amersham Biosciences) in 0.5 M EDTA, pH 8. Microtiter plates were incubated an additional 10 minutes at 37° C. prior to quantification via Topcount (Packard).

[1] = system: acute HIV infection of T-lymphoid cells; assay: Assay for inhibition of HIV replication (spread assay); assay type: cell-based; conditions: Human immunodeficiency virus 1; inhibition of HIV replication in T-lymphoid cells
Method: An assay for the inhibition of acute HIV infection of T-lymphoid cells (alternatively referred to herein as the “spread assay”) was conducted in accordance with Vacca, J. P. et al., Proc. Natl. Acad. Sci. USA 1994, 91: 4096. […] The compounds of Examples 2-4 and 22 were not tested.

[2] = target: T1, mutant HIV reverse transcriptase, Y181C mutation (Human immunodeficiency virus type 1 group M subtype B, UniProt P04585, Y768C); assay: Analogous RT inhibition assay, Y181C mutant; assay type: biochemical
T1 construct: made in house
Method: as §1
(§2) Analogous assays were conducted substituting mutant HIV strains to determine the […] inhibition of compounds of the present invention against mutant HIV reverse transcriptase. In one strain the reverse transcriptase has the Y181C mutation and in the other strain the reverse transcriptase has the K103N mutation. The mutations were generated with the […] site-directed mutagenesis kit (Stratagene).

[3] = target: T2, mutant HIV reverse transcriptase, K103N mutation (Human immunodeficiency virus type 1 group M subtype B, UniProt P04585, K690N); assay: Analogous RT inhibition assay, K103N mutant; assay type: biochemical; conditions: K103N mutant RT; tested up to 20 micromolar; read-out: IC50, K103N mutant assay
T2 construct: made in house
Method: as §1, §2

[4] = Y181C mutant RT, tested up to 20 micromolar, read-out: IC50, Y181C mutant assay

O=S(=O)(c1ccccc1)c1c(-c2ncc(-c3ccncc3)s2)[nH]c2ccc(Cl)cc12 [Example 2, 5-chloro-3-(phenylsulfonyl)-2-(5-pyridin-4-yl-1,3-thiazol-2-yl)-1H-indole]
IC50 (HIV-1 RT enzyme): 4 µM

COC(=O)c1cc(-c2c[nH]c(-c3[nH]c4ccc(Br)cc4c3S(=O)(=O)N3CCCC3)n2)ccc1O [Example 31, methyl 5-{2-[5-bromo-3-(pyrrolidin-1-ylsulfonyl)-1H-indol-2-yl]-1H-imidazol-4-yl}-2-hydroxybenzoate]
IC95 [1]: < 1 µM
IC50 [2]: > 20 µM
IC50 [3]: < 1 µM

O=S(=O)(c1ccccc1)c1c(-c2noc(Cc3ccccc3)n2)[nH]c2ccc(Cl)cc12 [Example 14, 2-(5-benzyl-1,2,4-oxadiazol-3-yl)-5-chloro-3-(phenylsulfonyl)-1H-indole]
IC95 [1]: < 1 µM
IC50 [2, 4]: > 20 µM
IC50 [3]: > 20 µM

Cc1nc(-c2[nH]c3ccc(Cl)cc3c2S(=O)(=O)c2ccccc2)no1 [Example 12, 5-chloro-2-(5-methyl-1,2,4-oxadiazol-3-yl)-3-(phenylsulfonyl)-1H-indole]
IC95 [1]: < 1 µM
IC50 [2, 4]: > 20 µM
IC50 [3]: > 20 µM
